Measured values from PubChem BioAssay (NCI).
Values joined by “and” are separate entries in the source; they are usually repeats but may differ in a detail not shown here. Equal entries are not always repeated.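 Tested at 5 concentrations; 48 h exposure; 96-well plates; endpoints linearly interpolated, else capped at highest concentration. GI50 is the concentration that inhibits growth by half. At the TGI there is no net growth.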

Experiments:
Experiment in all cases: inhibition of tumour cell growth, NCI panel, 48 h
[1] = test system: SF-268 CNS
[2] = test system: A549 NSCLC
[3] = test system: SN12C renal
[4] = test system: UACC-62 melanoma
[5] = test system: M14 melanoma
[6] = test system: SR leukemia
[7] = test system: UACC-257 melanoma
[8] = test system: HCT-15 colon
[9] = test system: KM12 colon
[10] = test system: HCC-2998 colon

Compound	GI50 [1] [µM]	TGI [1]	GI50 [2] [µM]	TGI [2]	GI50 [3] [µM]	TGI [3]	GI50 [4] [µM]	TGI [4]	GI50 [5] [µM]	TGI [5]	GI50 [6] [µM]	TGI [6]	GI50 [7] [µM]	TGI [7]	GI50 [8] [µM]	TGI [8]	GI50 [9] [µM]	TGI [9]	GI50 [10] [µM]	TGI [10] [µM]
C1=Cc2ccccc2Nc2ccccc21	> 100	> 100 µM	> 100	> 100 µM	> 100	> 100 µM	> 100	> 100 µM	> 100	> 100 µM	> 100	> 100 µM	> 100	> 100 µM	> 100	> 100 µM	> 100	> 100 µM	> 100	> 100
COc1cc(-c2nc(Nc3nc4ccccc4[nH]3)nc(N)c2C#N)cc(OC)c1OC	> 53.2	> 100 µM	30.7	> 100 µM	29.1	> 100 µM	4.65	> 59.7 µM	2.34	36.5 µM	0.23	> 100 µM	> 100	> 100 µM	18.1	> 100 µM	0.714	> 100 µM	> 40.8	> 100
O=C1CC(c2ccc(N3CCOCC3)cc2)(c2ccsc2)NC(=O)C1Sc1ccccc1Cl (centres undefined)	20.2	> 100 µM	> 100	> 100 µM	10.1	> 100 µM	53.1	> 100 µM	60.7	> 100 µM	4.4	> 100 µM	> 100	> 100 µM	56.7	> 100 µM	43.7	> 100 µM	> 100	> 100
C/C(CC(=O)Nc1ccc(Cl)c(Cl)c1)=N/NC(=O)C[n+]1ccccc1		> 100 µM		> 100 µM		> 100 µM		> 100 µM		> 100 µM		51.2 µM		> 100 µM		> 100 µM		> 100 µM		> 100
COc1ccc2c(=O)c(C)c(-c3ccccc3)oc2c1CN(C)C		> 100 µM		> 100 µM		> 100 µM		> 100 µM		> 100 µM		> 100 µM		> 100 µM		> 100 µM		> 100 µM		> 100
O=C(CN1CCN(c2ncnc3ccccc23)CC1)Nc1ccc(Cl)cc1C(=O)c1ccccc1Cl	0.686	13 µM	2.66	> 100 µM	0.943		0.579	1.5 µM	0.919	2.88 µM	0.263		2.04	6.69 µM	3.12	10.8 µM		5.08 µM	1.79	4.96
Cc1ccc([N+](=O)[O-])c2c(NCCNC(=O)Cn3ccnc3[N+](=O)[O-])ccnc12		> 100 µM		> 100 µM		> 100 µM		> 100 µM		> 100 µM		> 100 µM		87.7 µM		> 100 µM		> 100 µM		> 100
Cn1nccc1Nc1nccc(-c2cc3c(s2)C(C)(C)N(CCN2CCOCC2)C3=O)n1	27.8	> 100 µM	5.27	> 100 µM	17.1	> 100 µM	0.274	> 100 µM	0.312	> 37.4 µM	23	> 100 µM	0.301	> 100 µM	16.9	> 100 µM	7.86	> 100 µM	0.602	> 100
Cc1c(Cl)ccc2c1NC(=O)C2(O)C(C(=O)c1ccccc1)c1ccccc1 (centres undefined)		> 100 µM		> 100 µM		> 100 µM		46 µM		> 100 µM		60.2 µM		89 µM		> 100 µM		> 100 µM		> 100
COc1ccc2c(c1)c(=O)c1ccccc1n2/C=C/C(=O)O		> 100 µM		> 100 µM		> 100 µM		> 100 µM		> 100 µM		> 57.4 µM		> 100 µM		> 100 µM		> 100 µM		> 100
COc1cc(/C=C2\[C@H]3c4c(c(OC)c(C)c(OC)c4OC)C[C@@H](C(=O)N2Cc2ccccc2)N3C(=O)OCC(C)C)c(OC)c(C)c1OC		> 100 µM		> 100 µM		> 100 µM		> 100 µM		> 100 µM		> 100 µM		> 100 µM		> 100 µM		> 100 µM		> 100
CCCN(CCC)C(=O)C1=Cc2ccc(-c3ccc(C(=O)N4CCCC4)cc3)cc2N=C(N)C1	15.5	46 µM	7.69	35.3 µM	18.4	60 µM	9.17	26.4 µM	5.66	22.7 µM	4.21	18.3 µM	9.03	22.3 µM	4.8	23.1 µM	5.01	21.4 µM	14.4	35.8
COc1cccc(C2c3cc4c(cc3OC(C)(O)C2C)OCO4)c1O (centres undefined)		> 100 µM		66.6 µM		62.3 µM		31.1 µM		24.2 µM		> 42.1 µM		47.1 µM		27.8 µM		36.6 µM		24.1
COc1ccc2c(c1)C(=O)/C(=C/c1cccc(OCC(=O)Nc3nc4c(s3)CCCC4)c1)O2	0.314	1.08 µM	3.31	18.5 µM	1.63	6.81 µM	5.23	18.4 µM	1.81	4.51 µM	0.156	0.351 µM	11.2	24.4 µM	1.54	3.19 µM	0.72	4.09 µM	1.83	3.44
O=C(Nc1ccccc1O)c1cccc(NC2=C(Cl)C(=O)N(Cc3ccccc3)C2=O)c1	11.3	27.5 µM	12.4	24.8 µM	2.22	7.57 µM	2.33	6.79 µM	4.35	11.3 µM	0.583	2.57 µM	4.44	16.6 µM	2.02	5.13 µM	12.9	26.6 µM	3.33	13.4
COC(=O)NC1C(C)OC(OC2C/C=C(/C)C3C=CC4C(OC5CC(OC6CC(O)C(OC7CC(O)C(OC)C(C)O7)C(C)O6)C(O)C(C)O5)C(C)CC(C)C4C3(C)/C(O)=C3\C(=O)OC4(CC(C)C(CO)=CC4/C=C\2C)C3=O)CC1(C)[N+](=O)[O-] (centres undefined)		50 µM and 55.1 µM	25.7	50 µM and 58.5 µM	9.65	29.1 µM and 40 µM	9.44	16.7 µM and 18.4 µM	16.9	17.2 µM and 32.7 µM	23.2	50 µM and > 100 µM	8.28	16.4 µM and 29.4 µM		50 µM and 40.8 µM	9.15	16.6 µM and 25.2 µM		31.6
Cc1cc(N2CCCCC2)nc(N(CCCNc2ccnc3cc(Cl)ccc23)Cc2ccco2)n1	2.86	11.9 µM	3.34	11.2 µM	2.14	7.15 µM	1.89	3.73 µM	1.64	3.4 µM	1.69	4.71 µM	2.35	5.21 µM	1.62	4.88 µM	2.82	11.1 µM	1.97	4.39
Cc1cc(NS(=O)(=O)c2ccc(N=Nc3cc(N=Nc4ccc(S(=O)(=O)Nc5cc(C)nc(C)n5)cc4)c4c(NC(=O)C(Cl)Cl)cccc4c3OC(=O)C(Cl)Cl)cc2)nc(C)n1 (tested in a mixture with another compound)		98.3 µM		> 100 µM		37.8 µM		51.4 µM		70.2 µM		94.8 µM		70.2 µM		31.7 µM		31.6 µM		35.8
CCOC(=O)/C(=C\c1ccc(O)c(OC)c1)C(=O)c1ccccc1		28.1 µM		51.3 µM		33.5 µM		28.6 µM		> 48 µM		62.7 µM		> 49.7 µM		24.8 µM		34.3 µM		38.1
Oc1ccc(-c2nnc3sc(-c4ccc(F)c(Oc5ccccc5)c4)nn23)cc1	18	53.2 µM	30.9	> 100 µM	37.6	> 100 µM	19.8	66.8 µM	43.6	> 100 µM	29.9	> 100 µM	> 100	> 100 µM	91.2	> 100 µM	45.7	> 100 µM	73.2	> 100
COc1cc(C(=O)c2ccc3c(c2)OCO3)cc(OC)c1OC	5.56	> 100 µM	6.03	> 100 µM	6.86	> 100 µM	2.62	> 100 µM	1.2	> 100 µM	0.348	> 87.7 µM	> 100	> 100 µM	0.928	> 100 µM	0.656	80.8 µM	9.73	> 100
COc1cc2nc(-c3cnc(N(C)C)nc3)nc(NC3CCN(Cc4ccccc4)CC3)c2cc1OC	1.73	3.72 µM	0.351	1.79 µM	1.77	3.49 µM	1.73	3.29 µM	1.5	3.06 µM	0.273	0.938 µM	1.79	3.66 µM	1.01	2.39 µM	1.72	3.53 µM	1.79	3.25
O=c1c2cccc(Cl)c2sc2c(NCCCNCCO)nc3ccccc3c12	3.66	16.7 µM	1.31	3.39 µM	2.62	14 µM	1.65	3.15 µM	1.79	3.54 µM	1.6	5.97 µM	10.4	28 µM	1.54	3.33 µM	1.87	3.73 µM	1.62	3.02
Cc1ccc(NC(=O)C(=O)C2C(=O)N(c3ccccc3)N=C2N)cc1C (centres undefined)		> 100 µM		> 100 µM		> 100 µM		> 100 µM		> 100 µM		> 100 µM		> 100 µM		> 100 µM		> 100 µM		> 100
